# Data: patent US20160338967A1, “SUSTAINED RELEASE DEPOT FORMULATIONS OF T[…], AND USES THEREOF” (Kineta One, LLC, priority 2013, published 2016)
# Tests used:
# [1] = test system: delayed type hypersensitivity rat model; assay: Delayed type hypersensitivity rat model (ear induration); assay type: in vivo, Lewis rats; settings: single injection of PLG depot formulation on day 0, 1,000-40,000 μg/kg; versus daily SC injection in buffer P6N
# Experimental: Therapeutic efficacy of ShK-186 and ShK-192 depot formulations in animal models of autoimmune disease including the delayed type hypersensitivity rat model. Lewis rats are vaccinated by SC administration to the base of the tail with 100 μg ovalbumin mixed 1:1 (v/v) in Complete Freund's Adjuvant (CFA) (OVA/CFA, 200 μL volume) on day 0 using a 20 G×1% needle. Delayed-type hypersensitivity (DTH) is elicited in the ear on Day 7 by injection of 20 μg OVA in 10 μL to the pinna of the ear of isoflurane-anesthetized animals using 29 G×1 needles. DTH is evaluated on Days 8 and 9 by measuring the induration of the site of antigen injection with a micrometer (caliper). Control treatments with ShK-186 or ShK-192 include SC injections of ShK-186 or ShK-192 at 100 μg/kg, 10 μg/kg, 3 μg/kg or 1 μg/kg given on day 0-7 (daily from the initial immunization). The control treatments are compared to a single injection of a depot formulation of ShK-186 or ShK-192 using a PLG polymer-based (in one example, PLG2A) sustained formulations at a dose of 1,000 μg/kg, 5,000 μg/kg, 10,000 μg/kg, 20,000 μg/kg, or 40,000 μg/kg given on day 0 (time of immunization).
# [2] = test system: chronic relapsing/remitting autoimmune encephalomyelitis rat model; assay: Chronic relapsing/remitting autoimmune encephalomyelitis rat model (clinical scoring); assay type: in vivo, dark agouti rats; settings: single injection of PLG2A depot formulation, 1,000-40,000 μg/kg; prevention and treatment models
# Experimental: Therapeutic efficacy of ShK-186 and ShK-192 depot formulations in animal models of autoimmune disease including the chronic relapsing/remitting autoimmune encephalomyelitis rat model. Chronic relapsing/remitting autoimmune encephalomyelitis (CR-EAE) is induced by SC injection of spinal cord homogenate (Bioreclamation, Inc.) and CFA to dark agouti rats (Harlan). Animals typically recover by 30 days after onset of CR-EAE. Rats are treated with different amounts of ShK-186 or ShK-192 (1, 3, 5, 10, and 100 μg/kg) in SC injections daily, every two days, or every three days at different time points prior to and after elicitation of CR-EAE by immunization. These regimens are compared to single injection of depot formulations (ShK-186 or ShK-192 with PLG2A) at doses of 1,000 μg/kg, 5,000 μg/kg, 10,000 μg/kg, 20,000 μg/kg, or 40,000 μg/kg given at the beginning of the experiment (time immunization, prevention model) and after onset of disease, i.e., after a rat has a clinical score of 1 or greater (treatment model).
# The efficacy of the treatments is measured by clinical scoring of the severity of CR-EAE in daily and depot formulation-treated rats. […] Subsets of rats are sacrificed at specific time points of the experiment to harvest tissues or to collect whole blood samples.
# [3] = In vivo dose response/release of ShK-186 formulated with PLG2A, blood ELISA (Example 5); parameters: species or system Sprague Dawley rats
# Experimental: In vivo dose response of depot formulations using ShK-186 and ShK-192 with PLG2A. Preparation of depot formulations was performed as follows: 1.0 g of PLG2A was dissolved into 5.0 mL dichloromethane with mechanical stirring until the polymer was completely dissolved. A volume of 500 μL including three levels of ShK-186 (40, 20, and 10 mg/mL final concentration; in a 20 mM sodium phosphate aqueous buffer (pH 6.0) with 140 mM NaCl) was added separately into three separate PLG2A preparations and homogenized for 2 minutes with a 10×195 mm probe (26,000 rpm). The w/o emulsion was then poured into a 100 mL Pyrex® 1395 media bottle charged with 20 mL of 0.5% w/w DSS, and 20 mM phosphate (pH 7.0) water solution. The mixture was homogenized for 5 minutes at the same shear setting (26,000 rpm), with the beaker in thermal contact with melting ice (0° C.). The pH of the aqueous (external) phase was verified and adjusted if necessary to 5.0<pH<7.5.
# The formulation was then removed from shear, and stirred overnight at room temperature in a fume hood to allow solvent evaporation. The next morning the suspension was filtered through a 325 mesh screen and stored at room temperature with end over end mixing to avoid settling/clumping. Immediately before use by injection, the formulations were centrifuged utilizing the appropriate volume for 8 min, 4° C. at 2,000 g. The solid particles settled to the bottom, allowing for decanting of the almost clear supernatant, followed by replacement of aqueous solution with an appropriate volume and composition (e.g. PBS), followed by mechanical mixing to resuspend the particles.
# Sprague Dawley rats (females, ages 8-16 weeks, n=3) were given a SC injection of 1 mL of the indicated depot formulations. Blood was drawn at various time points and assayed for ShK-186 by ELISA methods.
# In a repeat experiment, the time during which blood levels of ShK-186 were monitored was extended.
# [4] = In vivo release of ShK-192 formulated with PLG2A, blood ELISA (Example 5); parameters: species or system Sprague-Dawley rats; settings: PLG2A depot formulation, 10,000 μg/kg, single SC injection, n=3 (FIG. 7)
# Experimental: The next part of this Example was performed to test formulation and in vivo release of ShK-192 over extended time durations. Similar to the methods used for ShK-186, 1.0 g of PLG2A was dissolved into 5.0 mL dichloromethane with mechanical stirring until the polymer was completely dissolved. A volume of 500 μL including a low dose of ShK-192 (10 mg/mL final concentration; in a 20 mM sodium phosphate aqueous buffer (pH 6.0) with 140 mM NaCl) was formulated by homogenizing for 2 minutes with a 10×195 mm probe (26,000 rpm). The w/o emulsion was then transferred into a 100 mL Pyrex® 1395 media bottle charged with 20 mL of 0.5% w/w DSS, 20 mM phosphate (pH 7.0), water solution.
# The mixture was held in thermal contact with ice water (0° C.) and homogenized for 5 minutes at 26,000 rpm, with the final pH of the aqueous (external) phase verified and adjusted to 5.0<pH<7.5. The formulation was then removed from homogenization and mechanically stirred overnight at room temperature in a fume hood to permit solvent evaporation. The next day the suspension was first filtered through a 325 mesh screen, then stored at room temperature with end over end mixing to minimize settling/clumping. Immediately before in vivo use, the formulations were centrifuged utilizing the appropriate volume for 8 minutes, at 4° C. at 2,000 g. […]
Substance,reduction of induration (inflammatory response) in DTH [1],reduction in clinical scores of CR-EAE [2],"shape of in vivo release profiles across doses ([3]; 40,000, 20,000 and 10,000 μg/kg (FIG. 6))","duration of sustained in vivo release ([3]; single SC dose (1 mL) 20,000 μg/kg, repeat experiment (FIG. 8))","time blood serum levels are maintained ([3]; single SC injection, 40,000, 20,000 and 10,000 μg/kg, n=3 (FIG. 6))",duration of release from depot formulation [4],time of maximum concentration [4]
(L-PhosphoTyr)-AEEAc-RSCIDTIPKSRCTAFQCKHSMKYRLSFCRKTCGTC-amide [ShK-186],significant therapeutic effect,significant therapeutic effects,"geometrically similar, but scaled by the area under the curve to the total dose",at least 56 days,more than 30 days,–,–
(Para-phosphono-Phe)-AEEAc-RSCIDTIPKSRCTAFQCKHS(Nle)KYRLSFCRKTCGTC-amide [ShK-192],significant therapeutic effect,significant therapeutic effects,–,–,–,over 30 days,~12 days
